These results are taken from patent US20210363152A1, “AMINOAZINE AMIDES” (Hoffmann-La Roche Inc., priority 2018, published 2021).

Each structure is given as a SMILES string. A value given as a limit tells only on which side of the number the result lay.

The target in the assay is T1, Autotaxin enzyme (ATX) (Homo sapiens, UniProt Q13822).
T1 construct: purchased Echelon Biosciences, Inc. E-4000
Description: In vitro ATX assay (enzymatic ATX inhibition, LPC 14:0 substrate, choline oxidase/HRP absorbance readout). The format is biochemical. Particulars: 0.3 mM LPC 14:0, 37° C., 4 hours, absorbance 555 nm. Here is the method: • Assay buffer: 100 mM Tris-HCl, pH 9.0, 500 mM NaCl, 5 mM MgCl2, 30 μM CoCl2, 0.05% Triton X-100 • Assay buffer II: 4.5 mM 4-AAP, 2.7 mM TOOS, 21.2 U/mL HRP, 3 U/mL CO, In 50 mM Tris-HCl pH 8.0, 4.5 mM MgCl2
A compound preparation plate (Nunc 249944) was prepared by adding 30 mM stock solution (in DMSO) of test compound and performing a serial full-log dilution down to 30 nM. Two μL/well were transferred from the first compound prep plate to a compound dilution plate (Corning, 3641) and 198 μL assay buffer I was added for a […].
A 10 ng/mL solution of ATX was prepared by diluting in assay buffer I, and 80 μL/well were added to the assay plate (Corning, 3641); negative control wells contained 80 μL/well assay buffer I only (no ATX). Ten μL/well from the compound dilution plate (containing serially diluted test compound or DMSO) were added to the assay plate, which was then incubated at 37° C. for 15 minutes. A solution of LPC 14:0 was prepared in assay buffer I at 3 mM and 10 μl/well were added to the assay plate, for a final concentration of 0.3 mM LPC, and returned to 37° C. incubator for 4 hours. After 4 hour incubation, 100 μL/well of assay buffer II was added to all wells of the assay plate. The plate was incubated at RT for 15 minutes, prior to reading on FlexStation in absorbance mode, 555 nm. Results in the enzymatic ATX inhibition assay are provided for compounds of formula (I). An IC50 value of “A” is less than 100 nM, “B” is equal to or greater than 100 nM but less than 1 μM, “C” is equal to or greater than 1 μM.
The IC50 is the concentration that inhibits the measured activity by half. Higher therefore signals weaker potency. For `O=C(c1cnc(NC2Cc3ccc(C4CC4)cc3C2)nc1)N1CCC12COC2` (centres unmarked) [Example 125, (2-((5-Cyclopropyl-2,3-dihydro-1H-inden-2-yl)amino)pyrimidin-5-yl)(6-oxa-1-azaspiro[3.3]heptan-1-yl)methanone], the IC50 was below 0.1 µM.
The figure for `CN(C)CC1CN(C(=O)c2cnc(NCc3cc(OC(F)(F)F)cc(C4CC4)c3)nc2)C1` [Example 100, (2-((3-cyclopropyl-5-(trifluoromethoxy)benzyl)ami-no)pyrimidin-5-yl)(3-((dimethylamino)methyl)azeti-din-1-yl)methanone] is 0.1 to 1 µM; for `CC(C)N1CC2(CCN2C(=O)c2cnc(NCc3cc(OC(F)(F)F)cc(C4CC4)c3)nc2)C1` [Example 147, (2-((3-Cyclopropyl-5-(trifluoromethoxy)benzyl)amino)pyrimidin-5-yl) (6-isopropyl-1,6-diazaspiro[3.3]heptan-1-yl)methanone] it is below 0.1 µM.
To `O=C(c1cnc(NCc2cc(OC(F)(F)F)cc(C3CC3)c2)nc1)N1CCC12CCCOC2` (centres unmarked) [Example 108, (2-((3-cyclopropyl-5-(trifluoromethoxy)benzyl)ami-no)pyrimidin-5-yl)(6-oxa-1-azaspiro[3.5]nonan-1-yl)-methanone] belongs below 0.1 µM; to `COc1cc(CNc2ncc(C(=O)N3CCC34COC4)cn2)cc(OC(F)(F)F)c1` [Example 30], 0.1 to 1 µM.
The figure for `CN1CC2(CCN2C(=O)c2cnc(NCc3cc(OC(F)(F)F)cc(C4CC4)c3)nc2)C1` [Example 142, (2-((3-Cyclopropyl-5-(trifluoromethoxy)benzyl)amino)pyrimidin-5-yl)(6-methyl-1,6-diazaspiro[3.3]heptan-1-yl)methanone] is below 0.1 µM; for `O=C(c1cnc(NCc2cc(OC(F)(F)F)cc(C3CC3)c2)nc1)N1CC(F)(F)C1` [Example 86, (2-((3-cyclopropyl-5-(trifluoromethoxy)benzyl)ami-no)pyrimidin-5-yl)(3,3-difluroazetidin-1-yl)-methanone] it is 0.1 to 1 µM; for `CC1CC(C)N1C(=O)c1cnc(NCc2cc(OC(F)(F)F)cc(C3CC3)c2)nc1` (single isomer, unassigned) [Example 118, (2-((3-Cyclopropyl-5-(trifluoromethoxy)-benzyl)amino)pyrimidin-5-yl)(2,4-dimethylazetidin-1-yl)methanone] it is below 0.1 µM.
On to `CC(C)(C)c1cc(CNc2ncc(C(=O)N3CCC34COC4)cn2)cc(OC(F)(F)F)c1` [Example 4], for which the IC50 was below 0.1 µM.
The figure for `O=C(c1cnc(NCc2cccc(S(F)(F)(F)(F)F)c2)nc1)N1CCC12COC2` [Example 24] is 0.1 to 1 µM; for `O=C(c1cnc(NCc2cc(OC(F)(F)F)cc(C3CC3)c2)nc1)N1CCC12CS(=O)(=O)C2` [Example 107, (2-((3-cyclopropyl-5-(trifluoromethoxy)benzyl)ami-no)pyrimidin-5-yl)(6,6-dioxido-6-thia-1-azaspiro[3.3]heptan-1-yl)-methanone] it is below 0.1 µM.
To `NC(=O)c1cc(CNc2ncc(C(=O)N3CCC34COC4)cn2)cc(OC(F)(F)F)c1` [Example 140, 3-(((5-(6-Oxa-1-azaspiro[3.3]heptane-1-carbonyl)pyrimidin-2-yl)amino)methyl)-5-(trifluoromethoxy)benzamide] belongs at least 1 µM; to `CS(=O)(=O)C1CN(C(=O)c2cnc(NCc3cc(OC(F)(F)F)cc(C4CC4)c3)nc2)C1` [Example 88, (2-((3-cyclopropyl-5-(trifluoromethoxy)benzyl)ami-no)pyrimidin-5-yl)(3-(methylsulfonyl)azetidin-1-yl)methanone], 0.1 to 1 µM; to `CC(C)c1cc(CNc2ncc(C(=O)N3CCC3C)cn2)cc(OC(F)(F)F)c1` (centres unmarked) [Example 6], below 0.1 µM.
For `O=C(c1cnc(NCc2cc(OC(F)(F)F)cc(C3CC3)c2)nc1)N1CCC12CCOCC2` [Example 101, (2-((3-cyclopropyl-5-(trifluoromethoxy)benzyl)ami-no)pyrimidin-5-yl)(7-oxa-1-azaspiro[3.5]nonan-1-yl)methanone], the IC50 is below 0.1 µM.
The figure for `CC1(O)CN(C(=O)c2cnc(NCc3cc(OC(F)(F)F)cc(C4CC4)c3)nc2)C1` [Example 87, (2-((3-cyclopropyl-5-(trifluoromethoxy)benzyl)ami-no)pyrimidin-5-yl)(3-hydroxy-3-methylazetidin-1-yl)methanone] is 0.1 to 1 µM.
To `O=C(c1cnc(NCc2cccc(OC(F)(F)F)c2)cn1)N1CCC12COC2` [Example 71, 6-Oxa-1-azaspiro[3.3]heptan-1-yl(5-((3-(trifluoromethoxy)benzyl)|amino)pyrazin-2-yl)methanone] belongs 0.1 to 1 µM; to `O=C(c1cnc(NCc2cc(OC(F)(F)F)cc(C3CC3)c2)nc1)N1CCC12CN(C1CCC1)C2` [Example 144, (6-Cyclobutyl-1,6-diazaspiro[3.3]heptan-1-yl)(2-((3-cyclopropyl-5-(trifluoromethoxy)benzyl)amino)pyrimidin-5-yl)methanone], below 0.1 µM; to `O=C(c1cnc(NCc2cc(OC(F)(F)F)cc(C3CC3)c2)nc1)N1CC(O)C1` [Example 83, (2-((3-cyclopropyl-5-(trifluoromethoxy)benzyl)ami-no)pyrimidin-5-yl)(3-hydroxyazetidin-1-yl)-methanone], 0.1 to 1 µM.
To `N#Cc1cccc(CNc2ncc(C(=O)N3CCC34COC4)cn2)c1` [Example 14] belongs at least 1 µM; to `O=C(c1cnc(NCc2ccc(Cl)c(Cl)c2)nc1)N1CCC12COC2` [Example 51], at least 1 µM; to `Cc1cc(CNc2ncc(C(=O)N3CCC3C)cn2)cc(OC(F)(F)F)c1` (centres unmarked) [Example 12], 0.1 to 1 µM.
`O=C(c1cnc(NCc2cc(Br)cc(OC(F)(F)F)c2)nc1)N1CCC12COC2` [Example 25] registered an IC50 below 0.1 µM.
For `CC(C)Oc1cc(CNc2ncc(C(=O)N3CCC3C(C)(C)O)cn2)cc(C2CC2)c1` (centres unmarked) [Example 59], the IC50 is below 0.1 µM.
Take `O=C(c1cnc(NCc2cc(OC(F)(F)F)cc(C3CC3)c2)nc1)N1CCc2ccncc21` [Example 98, (2-((3-cyclopropyl-5-(trifluoromethoxy)benzyl)ami-no)pyrimidin-5-yl)(2,3-dihydro-1H-pyrrolo[2,3-c]pyridin-1-yl)methanone]: the IC50 is below 0.1 µM.
To `CCOc1cc(CNc2ncc(C(=O)N3CCC34COC4)cn2)cc(OC(F)(F)F)c1` [Example 31] belongs below 0.1 µM.
For the molecule `O=C(c1ccc(NCc2cc(OC(F)(F)F)cc(C3CC3)c2)nc1)N1CCC12COC2` [Example 77, (6-((3-Cyclopropyl-5-(trifluoromethoxy)benzyl)amino)pyridin-3-yl)(6-oxa-1-azaspiro[3.3]heptan-1-yl)methanone], the IC50 was below 0.1 µM.
Regarding `O=C(c1cnc(NCc2cc(OC(F)(F)F)cc(C3CC3)c2)nc1)N1CCC12CCCOC2` (single isomer, unassigned) [Example 121, (2-((3-Cyclopropyl-5-(trifluoromethoxy)benzyl)amino)-pyrimidin-5-yl)(6-oxa-1-azaspiro[3.5]nonan-1-yl)methanone], the IC50 is below 0.1 µM.
The figure for `O=C(c1cnc(NCc2cccc(OC(F)F)c2)nc1)N1CCC12COC2` [Example 17] is at least 1 µM; for `O=C(c1cnc(NCc2cc(OC(F)(F)F)cc(C3CC3)c2)nc1)N1CCC2COCC21` (centres unmarked) [Example 111, (2-((3-cyclopropyl-5-(trifluoromethoxy)benzyl)ami-no)pyrimidin-5-yl)(hexahydro-1H-furo[3,4-b]pyrrol-1-yl)methanone] it is below 0.1 µM; for `O=C(c1cnc(N[C@@H]2Cc3ccc(Br)cc3C2)nc1)N1CCC12COC2` [Example 62] it is below 0.1 µM.
To `O=C(c1cnc(NCc2cc(OC(F)(F)F)cc(C3CC3)c2)nc1)N1CC2(CCS2(=O)=O)C1` [Example 102, (2-((3-cyclopropyl-5-(trifluoromethoxy)benzyl)ami-no)pyrimidin-5-yl)(1,1-dioxido-1-thia-6-azaspiro[3.3]heptan-6-y)methanone] belongs 0.1 to 1 µM; to `COCC1CN(C(=O)c2cnc(NCc3cc(OC(F)(F)F)cc(C4CC4)c3)nc2)C1` [Example 99, (2-((3-cyclopropyl-5-(trifluoromethoxy)benzyl)ami-no)pyrimidin-5-yl)(3-(methoxymethyl)azetidin-1-yl)methanone], 0.1 to 1 µM.
In turn, `CC1CC(C)N1C(=O)c1cnc(NCc2cc(OC(F)(F)F)cc(C3CC3)c2)nc1` (single isomer, unassigned) [Example 119, (2-((3-Cyclopropyl-5-(trifluoromethoxy)-benzyl)amino)pyrimidin-5-yl)(2,4-dimethylazetidin-1-yl)methanone] registered an IC50 of at least 1 µM.
In turn, `O=C(c1ccc(NCc2cccc(OC(F)(F)F)c2)nc1)N1CCC12COC2` [Example 73, 6-Oxa-1-azaspiro[3.3]heptan-1-yl(6-((3-(trifluoromethoxy)benzyl)amino)pyridin-3-yl)methanone] had an IC50 of at least 1 µM.
